Test results taken from PubChem BioAssay (NCI).
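Five concentrations, 48 hours, 96-well plates. GI50: concentration for 50% inhibition of growth. TGI is the concentration that stops growth completely.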

Assays:
Assay in all cases: NCI-60 cell line screen, 48 h; in the data active means GI50 below about 0.43 µM; inactive means the rest
EKVX NSCLC = system: EKVX NSCLC
KM12 colon = system: KM12 colon
SK-MEL-2 melanoma = system: SK-MEL-2 melanoma
SF-268 CNS = system: SF-268 CNS
HCC-2998 colon = system: HCC-2998 colon
HOP-92 NSCLC = system: HOP-92 NSCLC
HOP-62 NSCLC = system: HOP-62 NSCLC
BT-549 breast = system: BT-549 breast
M14 melanoma = system: M14 melanoma
NCI/ADR-RES ovarian = system: NCI/ADR-RES ovarian
A498 renal = system: A498 renal
SK-OV-3 ovarian = system: SK-OV-3 ovarian
MCF7 breast = system: MCF7 breast
UACC-62 melanoma = system: UACC-62 melanoma
LOX IMVI melanoma = system: LOX IMVI melanoma
OVCAR-8 ovarian = system: OVCAR-8 ovarian
ACHN renal = system: ACHN renal
MOLT-4 leukemia = system: MOLT-4 leukemia
CAKI-1 renal = system: CAKI-1 renal
HCT-15 colon = system: HCT-15 colon
IGROV1 ovarian = system: IGROV1 ovarian
DU-145 prostate = system: DU-145 prostate
SF-539 CNS = system: SF-539 CNS
SF-295 CNS = system: SF-295 CNS
NCI-H226 lung = system: NCI-H226 lung
MALME-3M melanoma = system: MALME-3M melanoma
MDA-MB-231 breast = system: MDA-MB-231 breast
MDA-MB-468 breast = system: MDA-MB-468 breast
U251 CNS = system: U251 CNS

C#CCCCN(CCNc1ccnc2cc(Cl)ccc12)C(=O)CCC(=O)O[C@@H]1O[C@@H]2OC3(C)CC[C@H]4[C@H](C)CC[C@@H]([C@H]1C)[C@@]24OO3
5.49 µM: TGI (MDA-MB-468 breast)
inactive: GI50 (EKVX NSCLC) 1.03 µM | GI50 (KM12 colon) 0.572 µM | GI50 (SK-MEL-2 melanoma) 4.93 µM | GI50 (SF-268 CNS) 7.45 µM | GI50 (HCC-2998 colon) 2.72 µM | GI50 (HOP-92 NSCLC) 0.581 µM | GI50 (HOP-62 NSCLC) > 11.5 µM | GI50 (BT-549 breast) 1.27 µM | GI50 (M14 melanoma) 4.86 µM | GI50 (NCI/ADR-RES ovarian) 1.83 µM | GI50 (A498 renal) > 11.5 µM | GI50 (SK-OV-3 ovarian) > 11.5 µM | GI50 (MCF7 breast) 0.805 µM | GI50 (UACC-62 melanoma) 0.878 µM | GI50 (LOX IMVI melanoma) 0.676 µM | GI50 (OVCAR-8 ovarian) 1.04 µM | GI50 (ACHN renal) 2.18 µM | GI50 (MOLT-4 leukemia) 0.527 µM | GI50 (CAKI-1 renal) 8.21 µM | GI50 (IGROV1 ovarian) 3.01 µM | GI50 (DU-145 prostate) 8.95 µM | GI50 (SF-539 CNS) 3.99 µM | GI50 (SF-295 CNS) 1.87 µM | GI50 (NCI-H226 lung) 3.76 µM | GI50 (MALME-3M melanoma) 2.56 µM | GI50 (MDA-MB-231 breast) 9.5 µM | GI50 (MDA-MB-468 breast) 1.74 µM | GI50 (U251 CNS) 2.73 µM
> 11.5 µM: TGI (EKVX NSCLC) | TGI (KM12 colon) | TGI (SK-MEL-2 melanoma) | TGI (SF-268 CNS) | TGI (HCC-2998 colon) | TGI (HOP-62 NSCLC) | TGI (BT-549 breast) | TGI (M14 melanoma) | TGI (NCI/ADR-RES ovarian) | TGI (A498 renal) | TGI (SK-OV-3 ovarian) | TGI (MCF7 breast) | TGI (UACC-62 melanoma) | TGI (OVCAR-8 ovarian) | TGI (ACHN renal) | TGI (CAKI-1 renal) | TGI (HCT-15 colon) | TGI (IGROV1 ovarian) | TGI (DU-145 prostate) | TGI (SF-539 CNS) | TGI (SF-295 CNS) | TGI (NCI-H226 lung) | TGI (MALME-3M melanoma) | TGI (MDA-MB-231 breast) | TGI (U251 CNS)
6.74 µM: TGI (HOP-92 NSCLC)
2.82 µM: TGI (LOX IMVI melanoma)
active: GI50 (HCT-15 colon) 0.337 µM
5.82 µM: TGI (MOLT-4 leukemia)
